Structures are written as SMILES.

Series [1] can be described thus: Acute toxicity in the mouse (oral). The conditions noted are these: in vivo, mouse (male). How it is done:
(§1) The test compounds shown in Table 2 were administered orally to male mice and rats in the form of a suspension in a 1% solution of sodium carboxymethyl cellulose. The LD50 (lethal dose 50%) was calculated by the method of Litchfield and Wilcoxon.

The nature of series [2]: Acute toxicity in the rat (oral). Conditions: in vivo. As for the experimental part:
as §1

For `C#CCN1C(=O)CN=C(c2ccccc2)c2cc(Cl)ccc21` [Compound 1, 7-chloro-2,3-dihydro-5-phenyl-1-propargyl-1H-1,4-benzodiazepin-2-one], the values for the LD50 in series [1] and in series [2] were 1300 mg/kg and 6490 mg/kg, respectively.

In general, LD50 refers to the dose at which mortality reaches 50%. A low value points to a more toxic substance.

These data come from US4313943A, “7-Chloro-2,3-dihydro-5-phenyl-1-propargyl-1H-1,4-benzodiazepine-2-one, and a pharmaceutical composition thereof” (priority 1972, dated 1982).
